Where a name gives a salt, the structure may show the parent alone.

The target of this test is T1, human V1a receptor (Homo sapiens, UniProt P37288).
T1 construct: expressed in transfected cells; host or cells: HEK293 cells, transiently transfected; cell membranes
T1 sequence (P37288 whole entry): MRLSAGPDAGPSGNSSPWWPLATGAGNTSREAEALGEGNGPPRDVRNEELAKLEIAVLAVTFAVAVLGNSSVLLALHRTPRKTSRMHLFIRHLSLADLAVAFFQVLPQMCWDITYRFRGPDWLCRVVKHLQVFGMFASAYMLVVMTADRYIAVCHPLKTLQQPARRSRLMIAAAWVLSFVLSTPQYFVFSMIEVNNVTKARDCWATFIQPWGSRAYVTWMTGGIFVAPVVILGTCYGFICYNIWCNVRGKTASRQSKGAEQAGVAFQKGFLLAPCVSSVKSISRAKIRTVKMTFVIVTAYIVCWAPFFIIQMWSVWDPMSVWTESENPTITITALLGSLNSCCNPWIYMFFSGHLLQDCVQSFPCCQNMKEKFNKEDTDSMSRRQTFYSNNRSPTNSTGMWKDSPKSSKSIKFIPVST
Nature of the test: human V1a receptor binding studies (3H-Vasopressin, SPA beads). Conditions: membranes from HEK293 cells transiently transfected with human V1a receptor, Ki calculated from IC50 by the Cheng-Prussoff equation, read-out: pKi (hV1a) (converted). As for the experimental part:
The human V1a receptor was cloned by RT-PCR from total human liver RNA. The coding sequence was subcloned in an expression vector after sequencing to confirm the identity of the amplified sequence. […] Cell membranes were prepared from HEK293 cells transiently transfected with the expression vector and grown in 20 liter fermenters with the following protocol.
50 g of cells are resuspended in 30 ml freshly prepared ice cold Lyses buffer (50 mM HEPES, 1 mM EDTA, 10 mM magnesium dichloride adjusted to pH=7.4+complete cocktail of protease inhibitor (Roche Diagnostics)). Homogenized with Polytron for 1 min and solicited on ice for 2×2 minutes at 80% intensity (Vibrate solicitor). The preparation is centrifuged 20 min at 500 g at 4° C., the pellet is discarded and the supernatant centrifuged 1 hour at 43′000 g at 4° C. (19′000 rpm). The pellet is resuspended in 12.5 ml Lyses buffer+12.5 ml sucrose 20% and homogenized using a Polytron for 1-2 min. The protein concentration is determined by the Bradford method and aliquots are stored at −80° C. until use. For binding studies 60 mg Yttrium silicate SPA beads (Habersham®) are mixed with an aliquot of membrane in binding buffer (50 mM Tris, 120 mM sodium chloride, 5 mM potassium chloride, 2 mM calcium dichloride, 10 mM magnesium dichloride) for 15 minutes with mixing. 50 μl of bead/membrane mixture is then added to each well of a 96 well plate, followed by 50 μl of 4 nM 3H-Vasopressin (American Radiolabeled Chemicals). For total binding measurement 100 μl of binding buffer are added to the respective wells, for non-specific binding 100 μl of 8.4 mM cold vasopressin and for compound testing 100 μl of a serial dilution of each compound in 2% dimethyl sulfoxide. The plate is incubated 1 h at room temperature, centrifuged 1 min at 1000 g and counted on a Packard Top-Count. Non-specific binding counts are subtracted from each well and data is normalized to the maximum specific binding set at 100%. To calculate an IC50 the curve is fitted using a non-linear regression model (XLfit) and the Ki is calculated using the Cheng-Prussoff equation.
On to `CN1Cc2cc(Cl)ccc2-n2c(nnc2[C@H]2CC[C@H](c3cccnc3Cl)CC2)C1` [Example 53, trans-8-Chloro-1-[4-(2-chloro-pyridin-3-yl)-cyclohexyl]-5-methyl-5,6-dihydro-4H-2,3,5,10b-tetraaza-benzo[e]azulene], for which the Ki was 13.8 nM. Take `CC(C)(C)OC(=O)N1Cc2cc(Cl)ccc2-n2c(nnc2[C@H]2CC[C@H](c3cccnc3F)CC2)C1` [Example 54, trans-8-Chloro-1-[4-(2-fluoro-pyridin-3-yl)-cyclohexyl]-4H,6H-2,3,5,10b-tetraaza-benzo[e]azulene-5-carboxylic acid tert-butyl ester]: the Ki is 1 nM. In the case of `Fc1ncccc1[C@H]1CC[C@H](c2nnc3n2-c2ccc(Cl)cc2CNC3)CC1` [Example 55, trans-8-Chloro-1-[4-(2-fluoro-pyridin-3-yl)-cyclohexyl]-5,6-dihydro-4H-2,3,5,10b-tetraaza-benzo[e]azulene], the Ki was 69.2 nM. Regarding `CN1Cc2cc(Cl)ccc2-n2c(nnc2[C@H]2CC[C@H](c3cccnc3F)CC2)C1` [Example 56, trans-8-Chloro-1-[4-(2-fluoro-pyridin-3-yl)-cyclohexyl]-5-methyl-5,6-dihydro-4H-2,3,5,10b-tetraaza-benzo[e]azulene], the Ki was 8.13 nM. The figure for `CC(C)(C)OC(=O)N1Cc2cc(Cl)ccc2-n2c(nnc2[C@H]2CC[C@H](c3ncccn3)CC2)C1` [Example 57, trans-8-Chloro-1-(4-pyrimidin-2-yl-cyclohexyl)-4H,6H-2,3,5,10b-tetraaza-benzo[e]azulene-5-carboxylic acid tert-butyl ester] is 1.58 nM; for `CC(C)(C)OC(=O)N1Cc2cc(Cl)ccc2-n2c(nnc2[C@H]2CC[C@@H](c3ncccn3)CC2)C1` [Example 58, cis-8-Chloro-1-(4-pyrimidin-2-yl-cyclohexyl)-4H,6H-2,3,5,10b-tetraaza-benzo[e]azulene-5-carboxylic acid tert-butyl ester] it is 20.4 nM; for `Clc1ccc2c(c1)CNCc1nnc([C@H]3CC[C@H](c4ncccn4)CC3)n1-2` [Example 59, trans-8-Chloro-1-(4-pyrimidin-2-yl-cyclohexyl)-5,6-dihydro-4H-2,3,5,10b-tetraaza-benzo[e]azulene] it is 9.33 nM.

Consider `CN1Cc2cc(Cl)ccc2-n2c(nnc2[C@H]2CC[C@H](c3ncccn3)CC2)C1` [Example 60, trans-8-Chloro-5-methyl-1-(4-pyrimidin-2-yl-cyclohexyl)-5,6-dihydro-4H-2,3,5,10b-tetraaza-benzo[e]azulene], for which the Ki was 2.19 nM. The figure for `Clc1ccc2c(c1)CNCc1nnc([C@H]3CC[C@@H](c4ncccn4)CC3)n1-2` [Example 61, cis-8-Chloro-1-(4-pyrimidin-2-yl-cyclohexyl)-5,6-dihydro-4H-2,3,5,10b-tetraaza-benzo[e]azulene] is 427 nM. On to `CN1Cc2cc(Cl)ccc2-n2c(nnc2[C@H]2CC[C@@H](c3ncccn3)CC2)C1` [Example 62, cis-8-Chloro-5-methyl-1-(4-pyrimidin-2-yl-cyclohexyl)-5,6-dihydro-4H-2,3,5,10b-tetraaza-benzo[e]azulene], for which the Ki was 95.5 nM. Take `Cc1cc(C)nc([C@H]2CC[C@H](c3nnc4n3-c3ccc(Cl)cc3CN(C(=O)OC(C)(C)C)C4)CC2)n1` [Example 63, trans-8-Chloro-1-[4-(4,6-dimethyl-pyrimidin-2-yl)-cyclohexyl]-4H,6H-2,3,5,10b-tetraaza-benzo[e]azulene-5-carboxylic acid tert-butyl ester]: the Ki is 0.398 nM.

As to `Cc1cc(C)nc([C@H]2CC[C@H](c3nnc4n3-c3ccc(Cl)cc3CNC4)CC2)n1` [Example 64, trans-8-Chloro-1-[4-(4,6-dimethyl-pyrimidin-2-yl)-cyclohexyl]-5,6-dihydro-4H-2,3,5,10b-tetraaza-benzo[e]azulene hydrochloride], the Ki is 18.6 nM. `Cc1cc(C)nc([C@H]2CC[C@H](c3nnc4n3-c3ccc(Cl)cc3CN(C)C4)CC2)n1` [Example 65, trans-8-Chloro-1-[4-(4,6-dimethyl-pyrimidin-2-yl)-cyclohexyl]-5-methyl-5,6-dihydro-4H-2,3,5,10b-tetraaza-benzo[e]azulene]: the Ki was 2.29 nM. As for `Cc1nccc([C@H]2CC[C@H](c3nnc4n3-c3ccc(Cl)cc3CN(C(=O)OC(C)(C)C)C4)CC2)n1` [Example 66, trans-8-Chloro-1-[4-(2-methyl-pyrimidin-4-yl)-cyclohexyl]-4H,6H-2,3,5,10b-tetraaza-benzo[e]azulene-5-carboxylic acid tert-butyl ester], the Ki is 9.77 nM.

With `Cc1nccc([C@H]2CC[C@H](c3nnc4n3-c3ccc(Cl)cc3CNC4)CC2)n1` [Example 67, trans-8-Chloro-1-[4-(2-methyl-pyrimidin-4-yl)-cyclohexyl]-5,6-dihydro-4H-2,3,5,10b-tetraaza-benzo[e]azulene], the Ki was 1100 nM. With `Cc1nccc([C@H]2CC[C@H](c3nnc4n3-c3ccc(Cl)cc3CN(C)C4)CC2)n1` [Example 68, trans-8-Chloro-5-methyl-1-[4-(2-methyl-pyrimidin-4-yl)-cyclohexyl]-5,6-dihydro-4H-2,3,5,10b-tetraaza-benzo[e]azulene], the Ki is 126 nM. As for `CC(C)(C)OC(=O)N1Cc2cc(Cl)ccc2-n2c(nnc2[C@H]2CC[C@H](c3cnccn3)CC2)C1` [Example 69, trans-8-Chloro-1-(4-pyrazin-2-yl-cyclohexyl)-4H,6H-2,3,5,10b-tetraaza-benzo[e]azulene-5-carboxylic acid tert-butyl ester], the Ki was 0.603 nM. As to `Clc1ccc2c(c1)CNCc1nnc([C@H]3CC[C@H](c4cnccn4)CC3)n1-2` [Example 70, trans-8-Chloro-1-(4-pyrazin-2-yl-cyclohexyl)-5,6-dihydro-4H-2,3,5,10b-tetraaza-benzo[e]azulene], the Ki was 15.1 nM. With `CN1Cc2cc(Cl)ccc2-n2c(nnc2[C@H]2CC[C@H](c3cnccn3)CC2)C1` [Example 71, trans-8-Chloro-5-methyl-1-(4-pyrazin-2-yl-cyclohexyl)-5,6-dihydro-4H-2,3,5,10b-tetraaza-benzo[e]azulene], the Ki is 1.7 nM. Next, `Cc1cncc([C@H]2CC[C@H](c3nnc4n3-c3ccc(Cl)cc3CN(C(=O)OC(C)(C)C)C4)CC2)n1` [Example 72, trans-8-Chloro-1-[4-(6-methyl-pyrazin-2-yl)-cyclohexyl]-4H,6H-2,3,5,10b-tetraaza-benzo[e]azulene-5-carboxylic acid tert-butyl ester]: 1.2 nM; `Cc1cncc([C@H]2CC[C@H](c3nnc4n3-c3ccc(Cl)cc3CNC4)CC2)n1` [Example 73, trans-8-Chloro-1-[4-(6-methyl-pyrazin-2-yl)-cyclohexyl]-5,6-dihydro-4H-2,3,5,10b-tetraaza-benzo[e]azulene]: 55 nM. `Cc1cncc([C@H]2CC[C@H](c3nnc4n3-c3ccc(Cl)cc3CN(C)C4)CC2)n1` [Example 74, trans-8-Chloro-5-methyl-1-[4-(6-methyl-pyrazin-2-yl)-cyclohexyl]-5,6-dihydro-4H-2,3,5,10b-tetraaza-benzo[e]azulene]: the Ki is 11.2 nM. With `Cc1nccnc1[C@H]1CC[C@H](c2nnc3n2-c2ccc(Cl)cc2CN(C(=O)OC(C)(C)C)C3)CC1` [Example 75, trans-8-Chloro-1-[4-(3-methyl-pyrazin-2-yl)-cyclohexyl]-4H,6H-2,3,5,10b-tetraaza-benzo[e]azulene-5-carboxylic acid tert-butyl ester], the Ki is 1.2 nM.

Source of the values: patent US8492376B2, “Heteroaryl-cyclohexyl-tetraazabenzo[e]azulenes” (Hoffmann-La Roche Inc., priority 2010, dated 2013).
